Source: US7973061B2, “Anaplastic lymphoma kinase modulators and methods of use” (Exelixis, Inc., priority 2004, dated 2011)

The molecules below were run against T1, ALK (baculovirus expressed human ALK kinase domain F1098-K1410) (Homo sapiens, UniProt Q9UM73) (assay: biochemical). Conditions: 1 μM ATP, 4 μM poly-AEKY, 12 nM ALK, 2 hours at ambient temperature; read-out: ALK IC50.
T1 construct: human ALK kinase domain F1098-K1410; made in house
Outline: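 Baculovirus-expressed human ALK kinase domain (F1098-K1410) was run in a luciferase-coupled chemiluminescent format, with ATP near its KM. After 2 h at ambient temperature, remaining ATP was read by luciferase-luciferin luminescence. IC50 came from 10-point dose-response curves fitted to a four-parameter equation with Hill slope.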

T1 sequence (Q9UM73 1098-1410): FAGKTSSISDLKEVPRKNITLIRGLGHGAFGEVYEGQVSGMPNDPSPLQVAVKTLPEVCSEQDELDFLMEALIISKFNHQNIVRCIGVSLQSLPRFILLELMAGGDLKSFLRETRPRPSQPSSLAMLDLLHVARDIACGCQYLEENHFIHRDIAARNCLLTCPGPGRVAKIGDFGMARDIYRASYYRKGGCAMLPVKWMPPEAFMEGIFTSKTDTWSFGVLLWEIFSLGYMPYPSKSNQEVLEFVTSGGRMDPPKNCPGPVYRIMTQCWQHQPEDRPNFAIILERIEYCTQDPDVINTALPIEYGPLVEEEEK

Compound | IC50 [µM]
O=C(COc1ccc(OC(F)(F)F)cc1)NCc1nc(C(=O)NCCc2ccccc2Cl)co1 [Entry 273, N-[2-(2-chlorophenyl)ethyl]-2-({[({4-[(trifluoromethyl)oxy]phenyl}oxy)acetyl]amino}methyl)-1,3-oxazole-4-carboxamide] | 0.5 to 2
O=C(COc1ccc(OC(F)(F)F)cc1)NCc1nc(C(=O)NCCN2CCCC2)cs1 [Entry 274, N-(2-pyrrolidin-1-ylethyl)-2-({[({4-[(trifluoromethyl)oxy]phenyl}oxy)acetyl]amino}methyl)-1,3-thiazole-4-carboxamide] | 0.5 to 2
O=C(C/C=C/c1ccccc1)NCc1nc(C(=O)NCCc2ccccc2F)cs1 [Entry 276, N-[2-(2-fluorophenyl)ethyl]-2-({[(3E)-4-phenylbut-3-enoyl]amino}methyl)-1,3-thiazole-4-carboxamide] | 0.5 to 2
COc1ccccc1CNC(=O)c1csc(CNC(=O)COc2ccc(Br)cc2)n1 [Entry 277, 2-[({[(4-bromophenyl)oxy]acetyl}amino)methyl]-N-{[2-(methyloxy)phenyl]methyl}-1,3-thiazole-4-carboxamide] | 0.5 to 2
O=C(COc1ccc(OC(F)(F)F)cc1)NCc1nc(C(=O)N2CCN(c3ccccn3)CC2)cs1 [Entry 279, N-({4-[(4-pyridin-2-ylpiperazin-1-yl)carbonyl]-1,3-thiazol-2-yl}methyl)-2-({4-[(trifluoromethyl)oxy]phenyl}oxy)acetamide] | 0.5 to 2
O=C(COc1ccc(OC(F)(F)F)cc1)NCc1nc(C(=O)NCC(F)(F)F)cs1 [Entry 280, N-(2,2,2-trifluoroethyl)-2-({[({4-[(trifluoromethyl)oxy]phenyl}oxy)acetyl]amino}methyl)-1,3-thiazole-4-carboxamide] | 0.5 to 2
COc1ccccc1CNC(=O)c1csc(CNC(=O)C/C=C/c2ccccc2)n1 [Entry 284, N-{[2-(methyloxy)phenyl]methyl}-2-({[(3E)-4-phenylbut-3-enoyl]amino}methyl)-1,3-thiazole-4-carboxamide] | 0.5 to 2
O=C(COc1ccc(OC(F)(F)F)cc1)NCc1nc(C(=O)NCc2ccncc2)cs1 [Entry 285, N-(pyridin-4-ylmethyl)-2-({[({4-[(trifluoromethyl)oxy]phenyl}oxy)acetyl]amino}methyl)-1,3-thiazole-4-carboxamide] | 0.5 to 2
O=C(COc1ccc(OC(F)(F)F)cc1)NCc1nc(C(=O)NCCCN2CCCC2=O)cs1 [Entry 286, N-[3-(2-oxopyrrolidin-1-yl)propyl]-2-({[({4-[(trifluoromethyl)oxy]phenyl}oxy)acetyl]amino}methyl)-1,3-thiazole-4-carboxamide] | 0.5 to 2
Cc1ccccc1CNC(=O)c1coc(CNC(=O)COc2ccc(OC(F)(F)F)cc2)n1 [Entry 288, N-[(2-methylphenyl)methyl]-2-({[({4-[(trifluoromethyl)oxy]phenyl}oxy)acetyl]amino}methyl)-1,3-oxazole-4-carboxamide] | 0.5 to 2
O=C(COc1ccc(OC(F)(F)F)cc1)NCc1nc(C(=O)NCCN2CCCCC2)cs1 [Entry 290, N-(2-piperidin-1-ylethyl)-2-({[({4-[(trifluoromethyl)oxy]phenyl}oxy)acetyl]amino}methyl)-1,3-thiazole-4-carboxamide] | 0.5 to 2
O=C(COc1ccc(OC(F)(F)F)cc1)NCc1nc(C(=O)NCc2ccc(Cl)c(Cl)c2)co1 [Entry 291, N-[(3,4-dichlorophenyl)methyl]-2-({[({4-[(trifluoromethyl)oxy]phenyl}oxy)acetyl]amino}methyl)-1,3-oxazole-4-carboxamide] | 0.5 to 2
O=C(COc1ccc(OC(F)(F)F)cc1)NCc1nc(C(=O)NCc2ccc(F)cc2)co1 [Entry 292, N-[(4-fluorophenyl)methyl]-2-({[({4-[(trifluoromethyl)oxy]phenyl}oxy)acetyl]amino}methyl)-1,3-oxazole-4-carboxamide] | 0.5 to 2
O=C(COc1ccc(OC(F)(F)F)cc1)NCc1nc(C(=O)NC2CCCc3ccccc32)co1 (stereo not drawn) [Entry 293, N-(1,2,3,4-tetrahydronaphthalen-1-yl)-2-({[({4-[(trifluoromethyl)oxy]phenyl}oxy)acetyl]amino}methyl)-1,3-oxazole-4-carboxamide] | 0.5 to 2
O=C(COc1ccc(OC(F)(F)F)cc1)NCc1nc(C(=O)NCCc2ccccn2)co1 [Entry 296, N-(2-pyridin-2-ylethyl)-2-({[({4-[(trifluoromethyl)oxy]phenyl}oxy)acetyl]amino}methyl)-1,3-oxazole-4-carboxamide] | 0.5 to 2

Next, values leading:

IC50 [µM] | Compound
0.5 to 2 | CCN1CCCC1CNC(=O)c1csc(CNC(=O)COc2ccc(OC(F)(F)F)cc2)n1 (stereo not drawn) [Entry 275, N-[(1-ethylpyrrolidin-2-yl)methyl]-2-({[({4-[(trifluoromethyl)oxy]phenyl}oxy)acetyl]amino}methyl)-1,3-thiazole-4-carboxamide]
0.5 to 2 | CC(C)(C)OC(=O)NC1CCN(C(=O)c2csc(CNC(=O)COc3ccc(OC(F)(F)F)cc3)n2)C1 (stereo not drawn) [Entry 278, 1,1-dimethylethyl (1-{[2-({[({4-[(trifluoromethyl)oxy]phenyl}oxy)acetyl]amino}methyl)-1,3-thiazol-4-yl]carbonyl}pyrrolidin-3-yl)carbamate]
0.5 to 2 | CC(=O)NCCNC(=O)c1csc(CNC(=O)COc2ccc(OC(F)(F)F)cc2)n1 [Entry 281, N-[2-(acetylamino)ethyl]-2-({[({4-[(trifluoromethyl)oxy]phenyl}oxy)acetyl]amino}methyl)-1,3-thiazole-4-carboxamide]
0.5 to 2 | CC1CC(C)CN(C(=O)c2csc(CNC(=O)COc3ccc(OC(F)(F)F)cc3)n2)C1 (stereo not drawn) [Entry 282, N-({4-[(3,5-dimethylpiperidin-1-yl)carbonyl]-1,3-thiazol-2-yl}methyl)-2-({4-[(trifluoromethyl)oxy]phenyl}oxy)acetamide]
0.5 to 2 | CCOC(=O)N1CCC(NC(=O)c2csc(CNC(=O)COc3ccc(OC(F)(F)F)cc3)n2)CC1 [Entry 283, ethyl 4-({[2-({[({4-[(trifluoromethyl)oxy]phenyl}oxy)acetyl]amino}methyl)-1,3-thiazol-4-yl]carbonyl}amino)piperidine-1-carboxylate]
0.5 to 2 | COCCNC(=O)c1csc(CNC(=O)COc2ccc(OC(F)(F)F)cc2)n1 [Entry 287, N-[2-(methyloxy)ethyl]-2-({[({4-[(trifluoromethyl)oxy]phenyl}oxy)acetyl]amino}methyl)-1,3-thiazole-4-carboxamide]
0.5 to 2 | CC1CCCN(C(=O)c2csc(CNC(=O)COc3ccc(OC(F)(F)F)cc3)n2)C1 (stereo not drawn) [Entry 289, N-({4-[(3-methylpiperidin-1-yl)carbonyl]-1,3-thiazol-2-yl}methyl)-2-({4-[(trifluoromethyl)oxy]phenyl}oxy)acetamide]
0.5 to 2 | O=C(COc1ccc(OC(F)(F)F)cc1)NCc1nc(C(=O)N2CCC3CCCCC3C2)cs1 (stereo not drawn) [Entry 294, N-{[4-(octahydroisoquinolin-2(1H)-ylcarbonyl)-1,3-thiazol-2-yl]methyl}-2-({4-[(trifluoromethyl)oxy]phenyl}oxy)acetamide]
0.5 to 2 | CN(C(=O)OC(C)(C)C)C1CCN(C(=O)c2csc(CNC(=O)COc3ccc(OC(F)(F)F)cc3)n2)C1 (stereo not drawn) [Entry 295, 1,1-dimethylethyl methyl(1-{[2-({[({4-[(trifluoromethyl)oxy]phenyl}oxy)acetyl]amino}methyl)-1,3-thiazol-4-yl]carbonyl}pyrrolidin-3-yl)carbamate]
